For one data set, the system named is NCI-H522. The experiment in a line: NCI single dose screen, NCI-H522. Particulars: Homo sapiens; NCI-H522, non-small cell lung cancer; single dose 10^−5 M; read-out: growth inhibition percentage. It is filed as cell-based. The procedure:
(§1) Screening of the anticancer activity of the newly synthesised compounds (6a, 6c, 6d, 6e, 6j, 6l, 6m, 6n, 6o, and 6p) was performed by the US National Cancer Institute (NCI) using 60 different human tumour cell lines in accordance with standard procedures formerly reported.
(§2) In vitro anticancer screening was carried out for the selected compounds at a single dose (10^−5 M) against 60 different human tumour cell lines of nine different cancer cell types: leukaemia, lung, colon, CNS, melanoma, ovarian, renal, prostate, and breast cancers.

The next data set concerns RXF 393. The data set is described as follows: NCI single dose screen, RXF 393. It is filed as cell-based. The following applies: Homo sapiens; RXF 393, renal cancer; single dose 10^−5 M; read-out: growth inhibition percentage. The procedure:
as §1, §2

In the next data set the target is T1, human recombinant COX-2 (Homo sapiens, UniProt P35354).
T1 sequence (P35354 18-604): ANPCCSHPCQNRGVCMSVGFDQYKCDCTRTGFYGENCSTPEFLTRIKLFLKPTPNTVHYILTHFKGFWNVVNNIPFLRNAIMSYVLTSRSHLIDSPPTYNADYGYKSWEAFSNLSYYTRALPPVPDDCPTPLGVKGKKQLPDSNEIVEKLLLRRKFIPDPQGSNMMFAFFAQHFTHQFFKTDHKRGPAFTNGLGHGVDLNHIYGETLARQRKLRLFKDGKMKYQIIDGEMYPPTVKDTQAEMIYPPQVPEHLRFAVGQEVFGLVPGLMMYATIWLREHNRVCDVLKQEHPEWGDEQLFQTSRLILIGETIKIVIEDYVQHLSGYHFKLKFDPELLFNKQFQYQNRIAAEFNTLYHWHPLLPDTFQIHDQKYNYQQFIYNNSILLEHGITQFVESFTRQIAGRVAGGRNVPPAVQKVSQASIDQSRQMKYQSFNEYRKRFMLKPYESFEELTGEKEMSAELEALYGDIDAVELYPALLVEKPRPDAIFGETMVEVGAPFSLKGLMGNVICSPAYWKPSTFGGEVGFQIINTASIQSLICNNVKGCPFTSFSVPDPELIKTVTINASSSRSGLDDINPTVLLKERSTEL
The experiment in a line: In vitro COX-2 inhibition assay kit (Cayman). It is filed as biochemical. The following applies: for COX-2 SI: Selectivity index = COX-1 IC50/COX-2 IC50; for IC50: human recombinant COX-2, mean ± SEM, n = 3 replicates.

The subject of another data set is SF-295. The data set is described as follows: NCI single dose screen, SF-295. Particulars: Homo sapiens; SF-295, CNS cancer; single dose 10^−5 M; read-out: growth inhibition percentage. In kind it is cell-based. The procedure:
as §1, §2

The next data set has as its system A549/ATCC. The experiment in a line: NCI single dose screen, A549/ATCC. In kind it is cell-based. Particulars: Homo sapiens, non-small cell lung cancer, single dose 10^−5 M, read-out: growth inhibition percentage. As for the experimental part:
as §1, §2

Another data set deals with HOP-92. The data set is described as follows: NCI single dose screen, HOP-92. In kind it is cell-based. Particulars: Homo sapiens; HOP-92, non-small cell lung cancer; single dose 10^−5 M; read-out: growth inhibition percentage. As for the experimental part: as §1, §2
For another data set, the target named is T2, ovine COX-1 (Ovis aries, UniProt P05979).
T2 sequence (P05979 25-600): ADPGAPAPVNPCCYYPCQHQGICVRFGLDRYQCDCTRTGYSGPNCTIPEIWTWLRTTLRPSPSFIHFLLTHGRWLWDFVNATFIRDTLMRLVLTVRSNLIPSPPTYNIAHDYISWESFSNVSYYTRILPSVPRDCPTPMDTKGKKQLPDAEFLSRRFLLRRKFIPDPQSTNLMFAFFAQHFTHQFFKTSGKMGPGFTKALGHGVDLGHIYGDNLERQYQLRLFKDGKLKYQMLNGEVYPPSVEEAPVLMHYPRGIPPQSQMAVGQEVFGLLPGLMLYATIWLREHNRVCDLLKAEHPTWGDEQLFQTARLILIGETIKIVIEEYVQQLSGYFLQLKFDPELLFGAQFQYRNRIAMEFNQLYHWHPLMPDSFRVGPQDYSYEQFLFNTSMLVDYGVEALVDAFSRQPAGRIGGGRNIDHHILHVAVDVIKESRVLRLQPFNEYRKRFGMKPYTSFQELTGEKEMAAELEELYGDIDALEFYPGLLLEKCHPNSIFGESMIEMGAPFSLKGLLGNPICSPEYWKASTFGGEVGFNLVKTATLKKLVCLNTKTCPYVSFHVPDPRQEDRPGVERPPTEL
The experiment in a line: In vitro COX-1 inhibition assay kit (Cayman). Particulars: mean ± SEM, n = 3 replicates. In kind it is biochemical.

The nature of data set [1]: Cell viability assay against normal cell line (MTS). The following applies: mouse, RAW 264.7 cells, concentrations up to 50 μM, read-out: cell viability percentage of the control values. In kind it is cell-based. The procedure:
To evaluate the possible non-selective cytotoxic effect of the investigated compounds (6a, 6c, 6d, 6e, 6j, 6l, 6m, 6n, 6o, and 6p) on normal cells, their effect on RAW 264.7 cells viability was assessed at different concentrations (12.5, 25, 50, and 100 µM). Cell viability was measured using 3-(4,5-dimethylthiazol-2-yl)-5-(3-carboxymethoxyphenyl)-2-(4 sulfophenyl)-2H-tetrazolium (MTS) assay (Promega, Madison, Wisconsin) according to the manufacturer’s instructions.

Another data set deals with KM12. The data set is described as follows: NCI single dose screen, KM12. It is filed as cell-based. The following applies: Homo sapiens; KM12, colon cancer; single dose 10^−5 M; read-out: growth inhibition percentage. The procedure: as §1, §2
The subject of another data set is MCF7. The experiment in a line: NCI single dose screen, MCF7. It is filed as cell-based. The following applies: Homo sapiens; MCF7, breast cancer; single dose 10^−5 M; read-out: growth inhibition percentage. As for the experimental part: as §1, §2
The subject of another data set is 786-0. The experiment in a line: NCI single dose screen, 786-0. It is filed as cell-based. Particulars: Homo sapiens; 786-0, renal cancer; single dose 10^−5 M; read-out: growth inhibition percentage. The procedure: as §1, §2
The subject of a further data set is A498. The data set is described as follows: NCI single dose screen, A498. It is filed as cell-based. Particulars: Homo sapiens; A498, renal cancer; single dose 10^−5 M; read-out: growth inhibition percentage. As for the experimental part:
as §1, §2

A further data set has as its system U251. The experiment in a line: NCI single dose screen, U251. It is filed as cell-based. The following applies: Homo sapiens, U-251; U251, CNS cancer; single dose 10^−5 M; read-out: growth inhibition percentage. The procedure: as §1, §2
For the next data set, the system named is OVCAR-5. The data set is described as follows: NCI single dose screen, OVCAR-5. In kind it is cell-based. The following applies: Homo sapiens; OVCAR-5, ovarian cancer; single dose 10^−5 M; read-out: growth inhibition percentage. The procedure: as §1, §2
The test system of the next data set is HCT-15. The data set is described as follows: NCI single dose screen, HCT-15. It is filed as cell-based. Particulars: Homo sapiens; HCT-15, colon cancer; single dose 10^−5 M; read-out: growth inhibition percentage. The procedure: as §1, §2
The next data set relates to NCI-H23. The experiment in a line: NCI single dose screen, NCI-H23. Particulars: Homo sapiens; NCI-H23, non-small cell lung cancer; single dose 10^−5 M; read-out: growth inhibition percentage. In kind it is cell-based. The procedure: as §1, §2
The subject of a further data set is CCRF-CEM. The data set is described as follows: NCI single dose screen, CCRF-CEM. It is filed as cell-based. Particulars: Homo sapiens, leukaemia, single dose 10^−5 M, read-out: growth inhibition percentage. The procedure:
as §1, §2

As usually defined, the inhibition is the percentage by which the read-out fell short of the control. A word on the IC50: it is the concentration needed to halve the response being measured. As usually defined, the viability is a read-out of living cells in per cent, often relative to untreated cells.

Structures are written as SMILES. A value given as a limit tells only on which side of the number the result lay.

Procedure for human recombinant COX-2: (§3) The half-maximal inhibitory concentration (IC50, μM) was determined, and the COX-2 selectivity index (SI) was calculated as IC50 (COX-1)/IC50 (COX-2).
Procedure for ovine COX-1: as §3

For `COc1ccc(NC(=O)NN2C(=O)c3ccccc3N(C)C2c2ccc(OC)cc2)cc1` (centres unmarked) [Compound 6j, 1-(4-Methoxyphenyl)-3-(2-(4-methoxyphenyl)-1-methyl-4-oxo-1,4-dihydroquinazolin-3(2H)-yl)urea], the inhibition at 10 µM in the data set with NCI-H522, in the data set on RXF 393, with SF-295, with A549/ATCC, in the data set with HOP-92 and in the data set with KM12 was under 10% each time. Moreover, the inhibition at 10 µM is under 10% in the data set with MCF7; 34.2% in the data set on 786-0; under 10% with A498; under 10% in the data set with U251; under 10% in the data set with OVCAR-5; under 10% with HCT-15. The inhibition at 10 µM in the data set with NCI-H23 and in the data set on CCRF-CEM was under 10% each time. Further, on human recombinant COX-2, the “COX-2 SI” value is reported as 5.34. Moreover, the figures for the IC50 at human recombinant COX-2 and against ovine COX-1 were 5.04 ± 1.56 µM and 26.9 ± 3.03 µM, respectively. In data set [1], the viability is over 90%.

As for `COc1ccc(C2N(NC(=O)Nc3ccc(F)cc3)C(=O)c3ccccc3N2C)cc1` (centres unmarked) [Compound 6p, 1-(4-Fluorophenyl)-3-(2–(4-methoxyphenyl)-1-methyl-4-oxo-1,4-dihydroquinazolin-3(2H)-yl)urea], the inhibition at 10 µM with NCI-H522, with RXF 393, in the data set with SF-295, in the data set on A549/ATCC, with HOP-92 and in the data set with KM12 was under 10% throughout. The inhibition at 10 µM in the data set with MCF7 was 14.7%; in the data set on 786-0, under 10%; in the data set with A498 it was under 10%; with U251, under 10%; in the data set with OVCAR-5, under 10%; in the data set on HCT-15, under 10%. The inhibition at 10 µM with NCI-H23 and with CCRF-CEM was under 10% throughout. The “COX-2 SI” value at human recombinant COX-2 was determined as 9.54. The IC50 is 9.28 ± 1.04 µM on human recombinant COX-2 and 88.5 ± 3.01 µM at ovine COX-1. The viability in [1] was over 90%.

`CN1CN(NC(=O)Nc2ccccc2)C(=O)c2ccccc21` [Compound 6a, 1-(1-Methyl-4-oxo-1,4-dihydroquinazolin-3(2H)-yl)-3-phenylurea]: the inhibition at 10 µM with NCI-H522, with RXF 393, with SF-295, with A549/ATCC, in the data set with HOP-92 and with KM12 was under 10% throughout. The inhibition at 10 µM with MCF7, in the data set with 786-0, in the data set on A498, in the data set on U251, in the data set with OVCAR-5 and in the data set with HCT-15 was under 10% throughout. Also, the inhibition at 10 µM in the data set with NCI-H23 and with CCRF-CEM was under 10% throughout. In addition, on human recombinant COX-2, the “COX-2 SI” value is given as 0.18. Further, the IC50 at human recombinant COX-2 is 68.3 ± 1.89 µM; against ovine COX-1, 12.5 ± 1.36 µM. Further, the viability in data set [1] is over 90%.

As to `CN1c2ccccc2C(=O)N(NC(=O)Nc2ccccc2)C1c1ccc(F)cc1` (centres unmarked) [Compound 6d, 1-(2-(4-Fluorophenyl)-1-methyl-4-oxo-1,4-dihydroquinazolin-3(2H)-yl)-3-phenylurea], the inhibition at 10 µM with NCI-H522, in the data set on RXF 393, in the data set on SF-295, in the data set on A549/ATCC, in the data set on HOP-92 and with KM12 was under 10% each time. Besides, the inhibition at 10 µM is under 10% with MCF7; 11.9% in the data set with 786-0; under 10% with A498; under 10% in the data set on U251; under 10% with OVCAR-5; under 10% in the data set on HCT-15. Also, the inhibition at 10 µM in the data set on NCI-H23 and with CCRF-CEM was under 10% each time. For the same compound, the “COX-2 SI” value on human recombinant COX-2 was determined as 2.20. Also, the results for the IC50 at human recombinant COX-2 and against ovine COX-1 were 2.07 ± 1.39 µM and 4.56 ± 1.33 µM, respectively. For the same compound, in data set [1], the viability was over 90%.

On to `CN1c2ccccc2C(=O)N(NC(=O)Nc2ccc(F)cc2)C1c1ccc([N+](=O)[O-])cc1` (centres unmarked) [Compound 6o, 1-(4-Fluorophenyl)-3–(1-methyl-2-(4-nitrophenyl)-4-oxo-1,4-dihydroquinazolin-3(2H)-yl)urea], for which the inhibition at 10 µM in the data set on NCI-H522, with RXF 393, in the data set with SF-295, with A549/ATCC, in the data set with HOP-92 and in the data set on KM12 was under 10% in each case. Further, the inhibition at 10 µM in the data set on MCF7 is 17.9%; in the data set on 786-0, under 10%; in the data set on A498, under 10%; in the data set on U251, under 10%; in the data set with OVCAR-5, under 10%; in the data set with HCT-15 it was 10.7%. Further, the inhibition at 10 µM in the data set on NCI-H23 and with CCRF-CEM was under 10% in each case. The half-maximal inhibitory concentration (IC50) on human recombinant COX-2 is 10.1 ± 1.01 µM; at ovine COX-1 it was over 100 µM. Further, the viability in [1] is over 90%.

(Values after paper PMC10114980, “Triple targeting of mutant EGFR^L858R/T790M, COX-2, and 15-LOX: design and synthesis of novel quinazolinone tethered phenyl urea derivatives for anti-inflammatory and anticancer evaluation” (Journal of Enzyme Inhibition and Medicinal Chemistry, 2023).)
